This passage reports IC50 results from BindingDB's records for doi:10.7270/Q2BV7F1T (Pcmd, 2008).

The first experiment has as its target T1, DNA repair protein RAD51 homolog 1 (Homo sapiens, UniProt Q06609).
T1 sequence (Q06609 whole entry): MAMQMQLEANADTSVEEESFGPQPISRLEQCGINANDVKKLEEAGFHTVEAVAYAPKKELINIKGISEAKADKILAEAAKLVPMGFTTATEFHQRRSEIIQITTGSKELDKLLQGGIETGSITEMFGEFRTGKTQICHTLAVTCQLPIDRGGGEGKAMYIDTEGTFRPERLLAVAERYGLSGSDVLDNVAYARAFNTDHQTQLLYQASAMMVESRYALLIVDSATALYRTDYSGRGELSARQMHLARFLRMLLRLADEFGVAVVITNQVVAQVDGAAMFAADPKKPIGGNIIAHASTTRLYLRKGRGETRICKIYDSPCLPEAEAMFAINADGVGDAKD
The experiment in a line: concentration-dependent blocking of RAD51 activity – biochemical, homologous recombination, fluorescence, dose response (AID 1435).
Settings: not given
Usually IC50 stands for the concentration that inhibits the measured activity by half. Turning to `Cn1cc(NC(=O)c2cc(NC(=O)c3cc(NC=O)cn3C)cn2C)cc1C(=O)NCCC(=N)N`, the IC50 amounted to 6.37 µM.

Turning to `CCOc1ccccc1C(=O)Nc1nccs1`, the IC50 is > 85 µM.

`CC1=CC(C)C(COC(N)=O)(COC(N)=O)C(C)C1` (stereo unspecified): the IC50 is > 85 µM.

For the molecule `Cc1[nH]nc2c1C(=O)CCC2`, the half-inhibitory concentration (IC50) is > 85 µM.

Consider `O=C(CSc1ncn(-c2ccccc2)n1)c1cccs1`, for which the IC50 was > 85 µM.

For the molecule `CCOC(=O)C(NC(C)=O)(Nc1ccc(S(=O)(=O)Nc2cc(C)on2)cc1)C(F)(F)F` (stereo unspecified), the IC50 is > 85 µM.

On to `CCC(=O)Nc1nc(=S)ss1`, for which the 50% inhibitory concentration (IC50) was > 85 µM.

On to `COc1ccc(S(=O)(=O)NC(C)C(=O)Nc2ccccc2C(F)(F)F)cc1` (stereo unspecified), for which the IC50 is > 85 µM.

On to `CCCCNC(=S)NNC(=O)C12CC3CC(CC(C3)C1)C2`, for which the IC50 is > 85 µM.

With `Cc1cc(O)c(C=O)c2c1C(=O)Oc1c(CO)c(O)c3c(c1O2)C(O)OC3=O` (stereo unspecified) [1,4,10-Trihydroxy-5-hydroxymethyl-8-methyl-3,7-dioxo-1,3-dihydro-7H-benzo[e]furo[3'''',4'''':3,4]benzo[b][1,4]dioxepine-11-carbaldehyde], the half-maximal inhibitory concentration (IC50) came to 8.02 µM.

With `COc1cc(C)c2c(c1C=O)Oc1c(c(C)c(O)c3c1C(O)OC3=O)OC2=O` (stereo unspecified) [1,4-Dihydroxy-10-methoxy-5,8-dimethyl-3,7-dioxo-1,3-dihydro-7H-benzo[e]furo[3',4':3,4]benzo[b][1,4]dioxepine-11-carbaldehyde], the IC50 came out at 8.74 µM.

On to `CCOC(=O)C1CCN(C(=O)c2ccco2)CC1` [1-(2-furoyl)isonipecotic acid ethyl ester], for which the IC50 was > 85 µM.

As for `Cc1ccccc1NC(=O)NCC1CCCO1` (stereo unspecified) [1-(2-methylphenyl)-3-(oxolan-2-ylmethyl)urea], the IC50 was > 85 µM.

Turning to `CCOC(=O)C1CCCN(S(=O)(=O)c2ccc(OC)cc2)C1` (stereo unspecified) [1-(4-methoxyphenyl)sulfonyl-3-piperidinecarboxylic acid ethyl ester], the IC50 is > 85 µM.

As for `O=C(CSc1nnc(Cc2ccccc2)o1)N1CCc2ccccc21` [1-{[(5-benzyl-1,3,4-oxadiazol-2-yl)thio]acetyl}indoline], the IC50 was > 85 µM.

Turning to `O=c1cc(-c2ccccc2Cl)oc2ccc([N+](=O)[O-])c(O)c12` [2-(2-chlorophenyl)-5-hydroxy-6-nitrochromen-4-one], the IC50 is > 85 µM.

Consider `C=CCNc1oc(-c2ccc(OC)cc2)nc1C#N` [2-(4-methoxyphenyl)-5-(prop-2-enylamino)-1,3-oxazole-4-carbonitrile], for which the IC50 was > 85 µM.

As for `CCOC(=O)Cn1c(=O)c2c(nc(N3CCCCC3)n2Cc2ccccc2)n(C)c1=O` [2-(7-benzyl-2,6-diketo-3-methyl-8-piperidino-purin-1-yl)acetic acid ethyl ester], the concentration for half-maximal inhibition (IC50) is > 85 µM.

As for `CCN(CC)S(=O)(=O)c1ccc2c(c1)nc(SC(C)C(N)=O)n2-c1ccc(OC)cc1` (stereo unspecified) [2-[5-(diethylsulfamoyl)-1-(4-methoxyphenyl)benzimidazol-2-yl]sulfanylpropanamide], the IC50 worked out at 34.8 µM.

With `O=C(CSCc1ccc(F)cc1)Nc1nc2c(s1)CCCC2` [2-[(4-fluorobenzyl)thio]-N-(4,5,6,7-tetrahydro-1,3-benzothiazol-2-yl)acetamide], the half-inhibitory concentration (IC50) is > 85 µM.

On to `COc1cc(CN2CCN(c3ccc(C)cc3)CC2)cc([N+](=O)[O-])c1O` [2-methoxy-4-[[4-(4-methylphenyl)-1-piperazinyl]methyl]-6-nitrophenol], for which the concentration for half-maximal inhibition (IC50) was > 85 µM.

Take `CCOC(=O)C1(C(=O)OCC)CC1c1ccccc1` (stereo unspecified) [2-phenylcyclopropane-1,1-dicarboxylic acid diethyl ester]: the IC50 was > 85 µM.

The experiment is the same for the next values; noted with them: inactive by the depositor's call.
Take `CCOc1ccc(OCC)c(NC(=O)C2CCN(c3ncccn3)CC2)c1`: the IC50 stood at 42.5 µM.

In the case of `CCOC(=O)N1CCN(C(=O)CSCC(=O)N=c2sc3ccccc3n2C)CC1`, the half-inhibitory concentration (IC50) stood at 42.5 µM.

On to `CCCCC(Nc1ncnc2ccccc12)C(=O)O` (stereo unspecified) [2-(4-quinazolinylamino)hexanoic acid], for which the IC50 came to 42.5 µM.

For `CCOC(=O)Cn1c(=O)c2c(nc(N3CCCCC3)n2Cc2ccccc2)n(C)c1=O` [2-(7-benzyl-2,6-diketo-3-methyl-8-piperidino-purin-1-yl)acetic acid ethyl ester], the IC50 is 1.4 µM.
